# Tests used:
# [1] = tested on: TBF1 promoter; assay: Induction of the TBF1 promoter by chemical inducers
# [2] = tested on: Arabidopsis seedlings; assay: Seedling growth (fresh weight) on MS media supplemented with SA, elf18 or flg22; assay type: in vivo; settings: WT plants; 10 days on MS with increasing concentrations of SA or 10 μM elf18
# Method: (Panel 11A) Fresh weight of ten seedlings grown for 10 days on plates with MS growth media (Ctrl), MS supplemented with increasing concentrations of SA or 10 μM elf18. Error bars represent the standard deviation of three replicates. This experiment was repeated three times with similar results. Statistical analysis was performed using the Student's t-test, *, p-value<0.05, **, p-value<0.01, ***, p-value≤0.001.
# Fresh weight of ten seedlings grown for 10 days on plates with regular MS growth media (−f1g22) or MS supplemented with 10 μM f1g22 (+f1g22). Error bars represent standard deviation of three replicates. The experiment was repeated three times with similar results.
# [3] = tested on: Psm ES4326; assay: Bacterial infection assay: SA- and MAMP-induced resistance to Psm ES4326 in Arabidopsis plants; assay type: in vivo, Pseudomonas syringae pv. maculicola; settings: 1 mM SA spray 24 hrs prior to infection, Psm ES4326 OD600nm=0.001
# Method: Infection of Arabidopsis plants with Pseudomonas syringae pv. maculicola (Psm) ES4326 was performed as described previously. To test for enhanced disease susceptibility, a bacterial suspension at OD600nm=0.0001 was infiltrated into 2-3 leaves per plant and 12 plants/genotype. Bacterial growth was quantified 3 days later. To test for SAR and MAMP-induced resistance, plants were pre-treated with relevant compounds (1 mM SA, spray 24 hrs prior to infection; 10 μM elf18, infiltration 2 hrs prior to infection; 10 μM flg22, infiltration 2 hrs prior to infection), and subsequently inoculated with Psm ES4326 (OD600nm=0.001) into 2-3 leaves per plant and 12 plants/genotype/treatment. Sampling was performed 3 days post inoculation.
# [4] = tested on: Arabidopsis seedlings; assay: Tunicamycin sensitivity assay (seedling recovery/survival); assay type: in vivo; settings: two-day treatment with tunicamycin at 300 μg/L, measured 10 days later
# Method: (Panel 11B) Seedling recovery after a two-day treatment with the UPR inducer tunicamycin at 300 μg/L was measured 10 days later by counting the percentage of surviving seedlings (left), and by phenotype observations (right). Error bars represent standard deviation of three replicates. This experiment was repeated five times with similar results. Statistical analysis was performed using the Student's t-test, ***, p-value≤0.001.
# This assay was performed as described in earlier studies.
Compound,induction of the TBF1 promoter [1],other results
OC[C@@H](O)[C@@H](O)[C@H](O)[C@H](O)CO [mannitol],shown to induce the TBF1 promoter,
C=C [ethylene],shown to induce the TBF1 promoter,
CC/C=C\C[C@H]1C(=O)CC[C@@H]1CC(=O)O [jasmonic acid],shown to induce the TBF1 promoter,
"O=C(O)c1ccccc1O [SA, salicylic acid]",shown to induce the TBF1 promoter,"growth of seedlings (fresh weight) [2]: significantly inhibited; reduction in Psm ES4326 growth in response to induction by SA ([3]; WT plants, 3 days post inoculation): ~2 log; reduction in Psm ES4326 growth in response to induction by SA ([3]; tbf1 mutant): less than 1 log"
tunicamycin,,seedling survival rate ([4]; WT): ~60%; seedling survival rate ([4]; tbf1 mutant): ~20%
C[C@@H]1C[C@@H]([C@H](O)CC2CC(=O)NC(=O)C2)C(=O)[C@@H](C)C1 [cycloheximide],shown to induce the TBF1 promoter,
O=[N+]([O-])[O-].[Ag+] [AgNO3],shown to induce the TBF1 promoter,
CC1=CC(=O)CC(C)(C)[C@@]1(O)/C=C/C(C)=C\C(=O)O [abscisic acid],shown to induce the TBF1 promoter,
CC/C=C\CC1C(=O)CCC1CC(=O)OC (centres unmarked) [methyl ester of jasmonic acid],shown to induce the TBF1 promoter,
[Cl-].[Na+] [NaCl],shown to induce the TBF1 promoter,
